SMILES strings stand for the structures.

T1 sequence (P21554 whole entry): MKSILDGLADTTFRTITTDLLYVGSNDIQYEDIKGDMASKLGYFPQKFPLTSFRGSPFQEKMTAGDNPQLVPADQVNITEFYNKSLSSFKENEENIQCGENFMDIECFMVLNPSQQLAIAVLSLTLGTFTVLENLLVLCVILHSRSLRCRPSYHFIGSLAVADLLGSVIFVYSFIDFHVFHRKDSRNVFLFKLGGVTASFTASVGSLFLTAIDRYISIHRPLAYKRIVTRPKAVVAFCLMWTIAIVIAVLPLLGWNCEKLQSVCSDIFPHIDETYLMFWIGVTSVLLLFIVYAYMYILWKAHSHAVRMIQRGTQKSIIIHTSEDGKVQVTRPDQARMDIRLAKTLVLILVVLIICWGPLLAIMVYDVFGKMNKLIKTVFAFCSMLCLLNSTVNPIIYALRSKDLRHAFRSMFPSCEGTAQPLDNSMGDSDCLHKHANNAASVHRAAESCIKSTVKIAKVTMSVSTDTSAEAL

One assay addresses T1, Cannabinoid receptor 1 (Homo sapiens, UniProt P21554). Put plainly: Agonist activity at CB1 receptor (unknown origin) expressed in CHO cells by calcium mobilization assay. The class given is functional, cell-based. A general note: Calcium flux is commonly read through the fluorescence of an indicator in the cells.
Usually EC50 stands for the midpoint of the concentration-response curve. For `CCCCOc1cccc2cc(C(=O)NC(C)C(C)C)c(=O)oc12` (stereo not given), the EC50 was greater than 10 µM.

`CCCCOc1cccc2cc(C(=O)NN3CCCCC3)c(=O)oc12`: the EC50 is greater than 10 µM.

Turning to `CCCCOc1cccc2cc(C(=O)NCc3ccccc3)c(=O)oc12`, the 50% effective concentration (EC50) was greater than 10 µM.

For the compound `CCCCOc1cccc2cc(C(=O)NC3CCCC3)c(=O)oc12`, the EC50 is greater than 10 µM.

For the compound `CCCCCCOc1cccc2cc(C(=O)NC3CCCCC3)c(=O)oc12`, the EC50 is greater than 10 µM.

Turning to `CCCCOc1cccc2cc(C(=O)NC(C)CCC)c(=O)oc12` (stereo not given), the EC50 was greater than 10 µM.

For `CCCCOc1cccc2cc(C(=O)NC3CCCCC3)c(=O)oc12`, the EC50 was greater than 10 µM.

For `CCOc1cccc2cc(C(=O)NC3CCCCC3)c(=O)oc12`, the EC50 is greater than 10 µM.

In the case of `CCCCCOc1cccc2cc(C(=O)NC3CCCCC3)c(=O)oc12`, the half-maximal effective concentration (EC50) was greater than 10 µM.

`CCCCOc1cccc2cc(C(=O)NC(C)(C)C)c(=O)oc12`: the concentration for a half-maximal effect (EC50) was greater than 10 µM.

Regarding `CCCCOc1cccc2cc(C(=O)NC3CC3)c(=O)oc12`, the EC50 was greater than 10 µM.

`O=C(NCC1CCOCC1)c1cnc(Nc2ccc(Cl)cc2Cl)nc1C(F)(F)F` [GW842166X]: the concentration giving a half-maximal response (EC50) is greater than 10 µM.

As for `CCCCOc1cccc2cc(C(=O)NC(CC)CC)c(=O)oc12`, the EC50 was greater than 10 µM.

`CCCOc1cccc2cc(C(=O)NC3CCCCC3)c(=O)oc12`: the EC50 was greater than 10 µM.

Take `CCCCOc1cccc2cc(C(=O)NN3CCOCC3)c(=O)oc12`: the EC50 is greater than 10 µM.

Consider `CCCCOc1cccc2cc(C(=O)NC(C)C)c(=O)oc12`, for which the concentration giving a half-maximal response (EC50) is greater than 10 µM.

In the case of `O=C(NC1CCCCC1)c1cc2cccc(OCc3ccccc3)c2oc1=O`, the EC50 is greater than 10 µM.

Regarding `CCCCOc1cccc2cc(C(=O)NC34CC5CC(CC(C5)C3)C4)c(=O)oc12`, the EC50 is greater than 10 µM.

With `CCCCOc1cccc2cc(C(=O)N3CCCCC3)c(=O)oc12`, the EC50 is greater than 10 µM.

For the compound `O=C(NC1CCCCC1)c1cc2cccc(OCC3CC3)c2oc1=O`, the concentration giving a half-maximal response (EC50) was greater than 10 µM.

Take `CCCCOc1cccc2cc(C(=O)NCC3CC3)c(=O)oc12`: the 50% effective concentration (EC50) is greater than 10 µM.

In the case of `CCCCNC(=O)c1cc2cccc(OCCCC)c2oc1=O`, the half-maximal effective concentration (EC50) was greater than 10 µM.

The next assay deals with T2, Cannabinoid receptor 2 (Homo sapiens, UniProt P34972). Put plainly: Agonist activity at CB2 receptor (unknown origin) expressed in CHO cells by calcium mobilization assay. The class given is functional, cell-based.
T2 sequence (P34972 whole entry): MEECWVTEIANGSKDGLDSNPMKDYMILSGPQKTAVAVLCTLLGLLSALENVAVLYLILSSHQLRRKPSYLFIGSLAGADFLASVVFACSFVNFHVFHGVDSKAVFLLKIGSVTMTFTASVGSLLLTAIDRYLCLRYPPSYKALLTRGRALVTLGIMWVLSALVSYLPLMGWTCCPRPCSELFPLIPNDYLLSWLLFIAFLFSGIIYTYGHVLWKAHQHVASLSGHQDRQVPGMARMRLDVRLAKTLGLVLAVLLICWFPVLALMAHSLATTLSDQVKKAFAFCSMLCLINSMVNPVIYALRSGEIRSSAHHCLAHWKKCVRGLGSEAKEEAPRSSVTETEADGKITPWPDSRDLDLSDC
On to `CCCCOc1cccc2cc(C(=O)NCc3ccccc3)c(=O)oc12`, for which the half-maximal effective concentration (EC50) is greater than 10 µM.

Take `CCCCOc1cccc2cc(C(=O)NC3CCCC3)c(=O)oc12`: the EC50 stood at 0.793 µM.

Regarding `CCCCOc1cccc2cc(C(=O)NC(C)CCC)c(=O)oc12` (stereo not given), the 50% effective concentration (EC50) was 0.321 µM.

Turning to `CCCCOc1cccc2cc(C(=O)NC3CCCCC3)c(=O)oc12`, the EC50 came to 0.144 µM.

Turning to `CCOc1cccc2cc(C(=O)NC3CCCCC3)c(=O)oc12`, the EC50 is greater than 10 µM.

For the compound `CCCCCOc1cccc2cc(C(=O)NC3CCCCC3)c(=O)oc12`, the 50% effective concentration (EC50) came out at 0.245 µM.

In the case of `CCCCOc1cccc2cc(C(=O)NC(C)(C)C)c(=O)oc12`, the half-maximal effective concentration (EC50) amounted to 0.972 µM.

In the case of `O=C(NCC1CCOCC1)c1cnc(Nc2ccc(Cl)cc2Cl)nc1C(F)(F)F` [GW842166X], the EC50 is 0.431 µM.

In the case of `CCCCOc1cccc2cc(C(=O)NC(CC)CC)c(=O)oc12`, the half-maximal effective concentration (EC50) was 0.13 µM.

Consider `CCCOc1cccc2cc(C(=O)NC3CCCCC3)c(=O)oc12`, for which the 50% effective concentration (EC50) is greater than 10 µM.

As for `CCCCOc1cccc2cc(C(=O)NN3CCOCC3)c(=O)oc12`, the EC50 is greater than 10 µM.

For the compound `CCCCOc1cccc2cc(C(=O)NC(C)C)c(=O)oc12`, the EC50 amounted to 0.103 µM.

Take `CCCCOc1cccc2cc(C(=O)NC34CC5CC(CC(C5)C3)C4)c(=O)oc12`: the EC50 is greater than 10 µM.

Consider `CCCCOc1cccc2cc(C(=O)N3CCCCC3)c(=O)oc12`, for which the concentration giving a half-maximal response (EC50) is greater than 10 µM.

For the compound `CCCCOc1cccc2cc(C(=O)NCC3CC3)c(=O)oc12`, the half-maximal effective concentration (EC50) was greater than 10 µM.

Turning to `CCCCNC(=O)c1cc2cccc(OCCCC)c2oc1=O`, the EC50 is greater than 10 µM.

The target in the next assay is T2, Cannabinoid receptor 2. Put plainly: Agonist activity at CB2 receptor (unknown origin) expressed in CHO cells at 10 uM by calcium mobilization assay relative to control. The class given is functional, cell-based.
`CCCCOc1cccc2cc(C(=O)NC(C)C(C)C)c(=O)oc12` (stereo not given): the Activity is 41%.

Turning to `CCCCOc1cccc2cc(C(=O)NN3CCCCC3)c(=O)oc12`, the Activity came out at 37%.

Consider `CCCCCCOc1cccc2cc(C(=O)NC3CCCCC3)c(=O)oc12`, for which the Activity was 36%.

For the compound `CCCCOc1cccc2cc(C(=O)NC3CC3)c(=O)oc12`, the Activity stood at 34%.

With `O=C(NC1CCCCC1)c1cc2cccc(OCc3ccccc3)c2oc1=O`, the Activity stood at 33%.

On to `O=C(NC1CCCCC1)c1cc2cccc(OCC3CC3)c2oc1=O`, for which the Activity came to 42%.

The species entered for another assay is Homo sapiens. Put plainly: Selectivity index, ratio of EC50 for CB1 receptor (unknown origin) to EC50 for CB2 receptor (unknown origin).
For the compound `CCCCOc1cccc2cc(C(=O)NC3CCCC3)c(=O)oc12`, the Ratio EC50 was greater than 12.6.

In the case of `CCCCOc1cccc2cc(C(=O)NC(C)CCC)c(=O)oc12` (stereo not given), the Ratio EC50 was greater than 31.2.

In the case of `CCCCOc1cccc2cc(C(=O)NC3CCCCC3)c(=O)oc12`, the Ratio EC50 was greater than 69.4.

Turning to `CCCCCOc1cccc2cc(C(=O)NC3CCCCC3)c(=O)oc12`, the Ratio EC50 was greater than 40.8.

Take `CCCCOc1cccc2cc(C(=O)NC(C)(C)C)c(=O)oc12`: the Ratio EC50 was greater than 10.3.

Take `O=C(NCC1CCOCC1)c1cnc(Nc2ccc(Cl)cc2Cl)nc1C(F)(F)F` [GW842166X]: the Ratio EC50 is greater than 23.2.

Take `CCCCOc1cccc2cc(C(=O)NC(CC)CC)c(=O)oc12`: the Ratio EC50 is greater than 76.9.

Regarding `CCCCOc1cccc2cc(C(=O)NC(C)C)c(=O)oc12`, the Ratio EC50 was greater than 97.1.

In another assay the target is T1, Cannabinoid receptor 1. The class given is functional, cell-based, CHO.
In general, IC50 refers to the concentration that gives 50% inhibition. As for `CCCCOc1c(OC)ccc2cc(C(=O)NC(C)C)c(=O)oc12`, the 50% inhibitory concentration (IC50) was greater than 10 µM.

The compound `CCCOc1cc(Br)cc2cc(C(=O)NC3CCCCC3)c(=O)oc12` displayed an IC50 greater than 10 µM.

Consider `CCCCOc1cc(Br)cc2cc(C(=O)NC(C)C)c(=O)oc12`, for which the half-inhibitory concentration (IC50) is greater than 10 µM.

In turn, `CCCCOc1c(OC)ccc2cc(C(=O)NC(C)C(C)C)c(=O)oc12` (stereo not given) displayed a concentration for half-maximal inhibition (IC50) greater than 10 µM.

For the compound `CCCCCOc1c(OC)ccc2cc(C(=O)NC3CCCCC3)c(=O)oc12`, the IC50 is greater than 10 µM.

Consider `CCCCOc1cc(Br)cc2cc(C(=O)NC3CC3)c(=O)oc12`, for which the IC50 is greater than 10 µM.

Consider `CCCCOc1cc(Br)cc2cc(C(=O)NC3CCCCC3)c(=O)oc12`, for which the IC50 was greater than 10 µM.

For the next assay, the target named is T2, Cannabinoid receptor 2. Put plainly: Antagonist activity at CB2 receptor (unknown origin) expressed in CHO cells up to 10 uM incubated for 10 mins prior to CP55940 addition by calcium mobilization assay. The class given is functional, cell-based.
`CCCCOc1c(OC)ccc2cc(C(=O)NC(C)C)c(=O)oc12`: the 50% inhibitory concentration (IC50) was 0.162 µM.

Regarding `CCCOc1cc(Br)cc2cc(C(=O)NC3CCCCC3)c(=O)oc12`, the IC50 was greater than 10 µM.

Turning to `CCCCOc1cc(Br)cc2cc(C(=O)NC(C)C)c(=O)oc12`, the IC50 was greater than 10 µM.

As to `CCCCOc1c(OC)ccc2cc(C(=O)NC(C)C(C)C)c(=O)oc12` (stereo not given), the half-maximal inhibitory concentration (IC50) turned out to be 0.028 µM.

Take `CCCCCOc1c(OC)ccc2cc(C(=O)NC3CCCCC3)c(=O)oc12`: the IC50 was determined as 0.061 µM.

With `CCCCOc1cc(Br)cc2cc(C(=O)NC3CC3)c(=O)oc12`, the IC50 was greater than 10 µM.

For the compound `CCCCOc1cc(Br)cc2cc(C(=O)NC3CCCCC3)c(=O)oc12`, the IC50 stood at 0.09 µM.

A further assay is filed under the species Homo sapiens. Put plainly: Selectivity index, ratio of IC50 for CB1 receptor (unknown origin) to IC50 for CB2 receptor (unknown origin).
Turning to `CCCCOc1c(OC)ccc2cc(C(=O)NC(C)C)c(=O)oc12`, the Ratio IC50 was greater than 61.7.

Turning to `CCCCOc1c(OC)ccc2cc(C(=O)NC(C)C(C)C)c(=O)oc12` (stereo not given), the Ratio IC50 was greater than 357.

For `CCCCCOc1c(OC)ccc2cc(C(=O)NC3CCCCC3)c(=O)oc12`, the Ratio IC50 is greater than 164.

With `CCCCOc1cc(Br)cc2cc(C(=O)NC3CCCCC3)c(=O)oc12`, the Ratio IC50 was greater than 111.
